Test results reported in patent publication US11440913B2, “Aminoimidazopyridazines as kinase inhibitors” (BRISTOL-MYERS SQUIBB COMPANY, priority 2017, dated 2022).

Tests used:
[1] = target: His-GST-TVMV-hRIPK1(1-324) (Homo sapiens (Human), UniProt Q13546); assay: RIPK1 HTRF Binding Assay; settings: HTRF binding, 1 h at rt; read-out: RIPK1 (IC50)
How it was run: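 HTRF probe-displacement binding: 1 nM His-GST-TVMV-hRIPK1(1-324) (baculovirus construct), 90.6 nM probe, 0.2 nM anti-GST-Tb in 20 mM HEPES, 10 mM MgCl2, 0.015% Brij-35, 4 mM DTT, 0.05 mg/mL BSA. Incubated 1 h at rt; FRET 520/495 nm ratio, inhibition relative to DMSO-only wells.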

[2] = tested on: MLKL phosphorylation in HT29-L23 human colorectal adenocarcinoma cells; assay: MLKL Phosphorylation High-Content Assay; assay type: cell-based; settings: Homo sapiens, 6 h, necroptosis induced with TNFα, SMAC mimetic and Z-VAD, read-out: pMLKL (IC50)
How it was run: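 HT29-L23 cells pretreated 30 min at 37 °C with compound (6.25 to 0.106 μM final), then necroptosis induced with TNFα 35 ng/mL, SMAC mimetic 700 nM and Z-VAD 140 nM for 6 h. Fixed cells immunostained for MLKL pS358 and imaged; IC50 and Ymax from 4-parameter logistic fit.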

Sequence of His-GST-TVMV-hRIPK1(1-324) (Q13546 1-324): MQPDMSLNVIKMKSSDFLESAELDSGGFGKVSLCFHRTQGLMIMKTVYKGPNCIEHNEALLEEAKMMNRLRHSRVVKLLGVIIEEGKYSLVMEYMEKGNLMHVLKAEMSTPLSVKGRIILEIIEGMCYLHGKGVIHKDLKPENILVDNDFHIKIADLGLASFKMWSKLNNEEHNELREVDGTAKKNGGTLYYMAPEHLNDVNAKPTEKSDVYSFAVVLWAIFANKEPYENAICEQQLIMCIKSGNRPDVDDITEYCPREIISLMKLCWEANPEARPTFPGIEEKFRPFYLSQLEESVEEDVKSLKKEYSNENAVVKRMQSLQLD

Cc1ncc(-c2ccc3nc(NC(=O)CN4CCCC4)cn3n2)cc1C(=O)N[C@H](C)c1cc(C(F)(F)F)ccc1F [Example 333, N-[(1R)-1-[2-fluoro-5-(trifluoromethyl)-phenyl]ethyl]-2-methyl-5-{2-[2-(pynolidin-1-yl)acetamido]imidazo[1,2-b]pyridazin-6-yl}pyridine-3-carboxamide]
IC50 [1]: 91 nM
IC50 [2]: 218 nM

Cc1ncc(-c2ccc3nc(NC(=O)CN4CCC(F)(F)CC4)cn3n2)cc1C(=O)N[C@H](C)c1cc(OC(F)(F)F)ccc1F [Example 334, 5-{2-[2-(4,4-difluoropiperidin-1-yl)acetamido]-imidazo[1,2-b]pyridazin-6-yl}-N-[(1R)-1-[2-fluoro-5-(trifluoromethoxy)-phenyl]ethyl]-2-methylpyridine-3-carboxamide]
IC50 [1]: 15 nM
IC50 [2]: 10 nM

Cc1ncc(-c2ccc3nc(NC(=O)CN4CC(F)(F)C4)cn3n2)cc1C(=O)N[C@H](C)c1cc(OC(F)(F)F)ccc1F [Example 335, 5-{2-[2-(3,3-difluoroazetidin-1-yl)acetamido]-imidazo[1,2-b]pyridazin-6-yl}-N-[(1R)-1-[2-fluoro-5-(trifluoromethoxy)-phenyl]ethyl]-2-methylpyridine-3-carboxamide]
IC50 [1]: 28 nM
IC50 [2]: 9 nM

Cc1ncc(-c2ccc3nc(NC(=O)CN4CCN(C)CC4)cn3n2)cc1C(=O)N[C@H](C)c1cc(OC(F)(F)F)ccc1F [Example 336, N-[(1R)-1-[2-fluoro-5-(trifluoromethoxy)-phenyl]ethyl]-2-methyl-5-{2-[2-(4-methylpiperazin-1-yl)acetamido]imidazo[1,2-b]pyridazin-6-yl}pyridine-3-carboxamide]
IC50 [1]: 19 nM
IC50 [2]: 8 nM

Cc1ncc(-c2ccc3nc(NC(=O)CN(C)C)cn3n2)cc1C(=O)N[C@H](C)c1cc(OC(F)(F)F)ccc1F [Example 338, 5-{2-[2-(dimethylamino)-acetamido]-imidazo[1,2-b]pyridazin-6-yl}-N-[(1R)-1-[2-fluoro-5-(trifluoromethoxy)-phenyl]ethyl]-2-methylpyridine-3-carboxamide]
IC50 [1]: 21 nM
IC50 [2]: 50 nM

Cc1ncc(-c2ccc3nc(NC(=O)[C@H](C)O)cn3n2)cc1C(=O)N[C@H](C)c1cc(OC(F)(F)F)ccc1F [Example 339, N-((R)-1-(2-fluoro-5-(trifluoromethoxy)-phenyl)ethyl)-5-(2-((S)-2-hydroxypropanamido)-imidazo[1,2-b]pyridazin-6-yl)-2-methylnicotinamide]
IC50 [1]: 48 nM
IC50 [2]: 170 nM

CNCC(=O)Nc1cn2nc(-c3cnc(C)c(C(=O)N[C@H](C)c4cc(OC(F)(F)F)ccc4F)c3)ccc2n1 [Example 340, N-[(1R)-1-[2-fluoro-5-(trifluoromethoxy)-phenyl]ethyl]-2-methyl-5-{2-[2-(methylamino)-acetamido]imidazo [1,2-b]pyridazin-6-yl}pyridine-3-carboxamide]
IC50 [1]: 67 nM
IC50 [2]: 258 nM

Cc1ncc(-c2ccc3nc(NC(=O)CN)cn3n2)cc1C(=O)N[C@H](C)c1cc(OC(F)(F)F)ccc1F [Example 341, 5-[2-(2-aminoacetamido)-imidazo[1,2-b]pyridazin-6-yl]-N-[(1R)-1-[2-fluoro-5-(trifluoromethoxy)-phenyl]ethyl]-2-methylpyridine-3-carboxamide]
IC50 [1]: 91 nM
IC50 [2]: 492 nM

CC(=O)OCC(=O)Nc1cn2nc(-c3cnc(C)c(C(=O)N[C@H](C)c4cc(OC(F)(F)F)ccc4F)c3)ccc2n1 [Example 342, {[6-(5-{[(1R)-1-[2-fluoro-5-(trifluoromethoxy)-phenyl]ethyl]-carbamoyl}-6-methylpyridin-3-yl)imidazo[1,2-b]pyridazin-2-yl]carbamoyl}-methyl acetate]
IC50 [1]: 13 nM
IC50 [2]: 142 nM

Cc1ncc(-c2ccc3nc(NC(=O)CN4CCC(F)(F)CC4)cn3n2)cc1C(=O)NCC[C@@H](O)c1ccc(Cl)cc1 [Example 343, N-[(3R)-3-(4-chlorophenyl)-3-hydroxypropyl]-5-{2-[2-(4,4-difluoropiperidin-1-yl)acetamido]imidazo[1,2-b]pyridazin-6-yl}-2-methylpyridine-3-carboxamide]
IC50 [1]: 9 nM
IC50 [2]: 24 nM

Cc1ncc(-c2ccc3nc(NC(=O)CN4CC(F)(F)C4)cn3n2)cc1C(=O)NCC[C@@H](O)c1ccc(Cl)cc1 [Example 344, N-[(3R)-3-(4-chlorophenyl)-3-hydroxypropyl]-5-{2-[2-(3,3-difluoroazetidin-1-yl)acetamido]imidazo[1,2-b]pyridazin-6-yl}-2-methylpyridine-3-carboxamide]
IC50 [1]: 266 nM
IC50 [2]: 37 nM

Cc1ncc(-c2ccc3nc(NC(=O)CN(C)C)cn3n2)cc1C(=O)NCC[C@H](O)c1ccc(Cl)cc1 [Example 347, N-[(3S)-3-(4-chlorophenyl)-3-hydroxypropyl]-5-{2-[2-(dimethylamino)-acetamido]-imidazo[1,2-b]pyridazin-6-yl}-2-methylpyridine-3-carboxamide]
IC50 [1]: 44 nM
IC50 [2]: 89 nM

CC(=O)Nc1cn2nc(-c3cnc(C)c(C(=O)Nc4cnn(C(C)c5ccc(F)cc5)c4)c3)ccc2n1 (centres unmarked) [Example 348, 5-{2-acetamidoimidazo[1,2-b]pyridazin-6-yl}-N-{1-[1-(4-fluorophenyl)ethyl]-1H-pyrazol-4-yl}-2-methylpyridine-3-carboxamide]
IC50 [1]: 2 nM
IC50 [2]: 27 nM

CC(=O)Nc1cn2nc(-c3cnc(C)c(C(=O)Nc4cn(Cc5ccc(Cl)cc5)cn4)c3)ccc2n1 [Example 349, N-{1-[(4-chlorophenyl)methyl]-1H-imidazol-4-yl}-5-{2-acetamidoimidazo[1,2-b]pyridazin-6-yl}-2-methylpyridine-3-carboxamide]
IC50 [1]: 51 nM
IC50 [2]: 424 nM

CC(=O)Nc1cn2nc(-c3cnc(C)c(C(=O)Nc4cn(Cc5ccc(F)cc5)cn4)c3)ccc2n1 [Example 350, 5-{2-acetamidoimidazo[1,2-b]pyridazin-6-yl}-N-{1-[(4-fluorophenyl)methyl]-1H-imidazol-4-yl}-2-methylpyridine-3-carboxamide]
IC50 [1]: 27 nM
IC50 [2]: 169 nM

CC(=O)Nc1cn2nc(-c3cnc(C)c(C(=O)Nc4cn(Cc5ccccc5)cn4)c3)ccc2n1 [Example 351, N-(1-benzyl-1H-imidazol-4-yl)-5-{2-acetamidoimidazo [1,2-b]pyridazin-6-yl}-2-methylpyridine-3-carboxamide]
IC50 [1]: 28 nM
IC50 [2]: 49 nM

CC(=O)Nc1cn2nc(-c3cnc(C)c(C(=O)NCc4cc(-c5cnn(C)c5)ccc4F)c3)ccc2n1 [Example 352, 5-{2-acetamidoimidazo[1,2-b]pyridazin-6-yl}-N-{[2-fluoro-5-(1-methyl-1H-pyrazol-4-yl)phenyl]methyl}-2-methylpyridine-3-carboxamide]
IC50 [1]: 125 nM
IC50 [2]: 394 nM

CC(=O)Nc1cn2nc(-c3cnc(C)c(C(=O)NCC(C)(O)Cc4ccc(F)cc4)c3)ccc2n1 (centres unmarked) [Example 356, 5-{2-acetamidoimidazo[1,2-b]pyridazin-6-yl}-N-[3-(4-fluorophenyl)-2-hydroxy-2-methylpropyl]-2-methylpyridine-3-carboxamide]
IC50 [1]: 150 nM
IC50 [2]: 485 nM

CC(=O)Nc1cn2nc(-c3cnc(C)c(C(=O)N4CCCC(O)(Cc5ccc(F)cc5)C4)c3)ccc2n1 (centres unmarked) [Example 357, N-[6-(5-{3-[(4-fluorophenyl)methyl]-3-hydroxypiperidine-1-carbonyl}-6-methylpyridin-3-yl)imidazo[1,2-b]pyridazin-2-yl] acetamide]
IC50 [1]: 335 nM
IC50 [2]: 219 nM
